Assays:
[1] = tested on: testis tissue of kidney-yang deficiency rats; assay: Testicular tissue morphology (HE staining) in kidney-yang deficiency rats; format: in vivo, SD rats; conditions: HCT 10 d + 4.4 mg/kg sildenafil 10 d
Procedure: (§1) SD rats were randomly divided into 5 groups with 10 rats in each group. The SD rats were fed with 25 mg/kg hydrocortisone (HCT) for 10 days to construct a kidney-yang deficiency model, and then gave different concentrations of the CYCSE for 10 days. Specific groups were as follows: control group (distilled water 20 d); kidney-yang deficiency group (HCT 10 d+distilled water 10 d); CYCSE low-concentration group (HCT 10 d+60 mg/kg CYCSE 10 d); CYCSE high-concentration group (HCT 10 d+80 mg/kg CYCSE 10 d); sildenafil group (HCT 10 d+4.4 mg/kg sildenafil 10 d). After treatment, the rats were anesthetized by intraperitoneal injection of 3% sodium pentobarbital.
(§2) Cavernosum tissue and testicular tissue were fixed in 4% paraformaldehyde, and then embedded in paraffin and sectioned. Testicular tissue sections were stained with hematoxylin-eosin method and Masson method respectively. Cavernosum tissue sections were stained with hematoxylin-eosin method. The testicular tissue sections were processed by immunohistochemistry, and testicular leydig cells were labeled with 3β-HSD antibody. A Nikon posture microscope was used to take photos.

[2] = tested on: testicular leydig cells; assay: Immunohistochemistry of testicular leydig cells (3β-HSD); format: in vivo, SD rats; design: key: negative (−); weakly positive (+); ranging from negative (−) to weakly positive (+) to strong positive (+++); strong positive (+++); conditions: HCT 10 d + 4.4 mg/kg sildenafil 10 d
Procedure: as §1, §2

[3] = tested on: NO/cGMP signal pathway; assay: ELISA of iNOS and cGMP in kidney-yang deficiency rats; format: in vivo, SD rats; conditions: CYCSE 60, 80 mg/kg; sildenafil 4.4 mg/kg; vs model group
Procedure: SD rats were randomly divided into 5 groups with 10 rats in each group. The SD rats were fed with 25 mg/kg hydrocortisone (HCT) for 10 days to construct a kidney-yang deficiency model, and then gave different concentrations of the CYCSE for 10 days. Specific groups were as follows: control group (distilled water 20 d); kidney-yang deficiency group (HCT 10 d+distilled water 10 […] low-concentration group (HCT 10 d+60 mg/kg […] high-concentration group (HCT 10 d+80 mg/kg […]); sildenafil group (HCT 10 d+4.4 mg/kg sildenafil 10 d). After treatment, the rats were anesthetized by intraperitoneal injection of 3% sodium pentobarbital. After the animal was anesthetized, blood was taken from the celiac artery and spontaneously coagulated for 25 min, and centrifuged at 2500 rpm/min for 10 min at 4° C. Supernatant was collected, namely serum samples. Contents of inducible nitric oxide synthase (iNOS), cyclic guanosine phosphate (cGMP) and testosterone in serum were detected according to instructions of rat ELISA test kit (BPRO, Shanghai, China).

[4] = tested on: primary cavernous endothelial cells (MCECs); assay: CCK8 cell viability of H2O2 damaged MCECs; format: cell-based, C57BL/6 mice; conditions: CYCSE 31.3 and 62.5 μg/mL or sildenafil 24 h, then 0.4 mM H2O2 2 h; dose-dependent
From the text: Eight-week-old C57BL/6J mice were sacrificed by cutting necks. Lower abdomen was sterilized with alcohol cotton balls, a lower abdomen incision was made with tweezers and surgical scissors, and the abdominal fascia and foreskin glands were peeled off to expose cavernosum tissue. The cavernosum tissue was separated with surgical scissors and placed in Hank's balanced salt solution containing 10% penicillin-streptomycin, and urethra and neurovascular bundles were removed under microscope to obtain clean cavernosum tissue. The obtain tissue was washed 3 times in PSB containing 10% penicillin-streptomycin, cut into small pieces of 1-2 mm^3 with surgical scissors, and placed at bottoms of a pre-cooled 24-well plate with 2 pieces in each well. Each well was supplemented with 200 μL Matrigel containing 50 ng/mL VEGF-A. The MCECs were cultured in a simulated 3D environment to induce proliferation. Then the MCECs were incubate in a 37° C., 5% CO2 incubator for 14 days until the bottoms of the wells were full. After aspirating the medium, 200 μL Dispase was added to each well for digestion in the incubator for 1 h, and an equal volume of 10 mM EDTA was added to stop the digestion. […] A microplate reader was used to measure absorbance at 450 nm and calculate the cell viability.

[5] = tested on: kidney-yang deficiency rats; assay: Body weight, organ weight and routine indicators in hydrocortisone-induced kidney-yang deficiency rat model; format: in vivo, SD rats; conditions: HCT 10 d + 4.4 mg/kg sildenafil 10 d
Procedure: as §1, with “d); CYCSE” left out, “CYCSE 10 d); CYCSE” left out, “[…]);” for “CYCSE 10 d);”

[6] = tested on: sperm of kidney-yang deficiency rats; assay: Sperm count and vitality check; format: in vivo, SD rats; conditions: HCT 10 d + 4.4 mg/kg sildenafil 10 d
Procedure: SD rats were randomly divided into 5 groups with 10 rats in each group. The SD rats were fed with 25 mg/kg hydrocortisone (HCT) for 10 days to construct a kidney-yang deficiency model, and then gave different concentrations of the CYCSE for 10 days. Specific groups were as follows: control group (distilled water 20 d); kidney-yang deficiency group (HCT 10 d+distilled water 10 […] low-concentration group (HCT 10 d+60 mg/kg […] high-concentration group (HCT 10 d+80 mg/kg […]); sildenafil group (HCT 10 d+4.4 mg/kg sildenafil 10 d). After treatment, the rats were anesthetized by intraperitoneal injection of 3% sodium pentobarbital. At the end of administration, epididymis samples were collected, excess tissue was removed, and blood was washed away with saline. The samples were fixed with tweezers, so as to cut a tail side of the epididymis longitudinally. The sperm was released in a petri dish containing PBS, and a hemocytometer was used to detect number and viability of the sperm under a microscope after waiting at room temperature for 10 minutes (sperm viability is divided into 4 levels: a) move forward rapidly in a straight line, b) move forward slowly in a straight line, c) move locally, d) no move).

[7] = tested on: ERK and AKT signal pathways in TM3 cells; assay: Western blot of p-ERK/ERK and p-AKT/AKT in TM3 cells; format: cell-based, mouse; conditions: H2O2 damaged TM3 cells
Procedure: TM3 cells: purchased from Shanghai Cell Bank of the Chinese Academy of Sciences. The culture conditions are DMEM/F12+5% horse serum+2.5% fetal bovine serum+1% penicillin-streptomycin, 37° C., 5% CO2 incubator. TM3 cells were placed in a 96-well plate at a density of 3×10^4 cells/mL and divided into 6 groups: control group, H2O2 group, CYCSE group, ERK inhibitor ([…] group, AKT inhibitor ([…] group, and sildenafil group. After the two inhibitors were pretreated for 1 […] was added and processed for 24 h, and 0.4 mM H2O2 was added and processed for 2 h. The TM3 cells or the MCECs were placed in 6-well plates, and the CYCSE was added to process for 24 h and 0.4 mM H2O2 to process for 2 h. The cells were collected and washed twice with PBS, wherein supernatant was discarded. The testicular tissue in liquid nitrogen was ground into powder. 200 μL of RIPM lysis solution (containing 1% PMSF) was added to each of the above samples to lyse on ice for 30 min and centrifuge at 12000 r for 10 min at 4° C., wherein supernatant was stored at -20° C. for later use. A BCA protein content detection kit was used to determine protein content in the samples and to adjust protein concentration to the same level. An equal volume of 2× loading buffer was added to an appropriate amount of the extracted protein sample, which was mixed well, boiled for 10 min, and stored at -20° C. […]

[8] = tested on: TM3 cells; assay: CCK8 cell viability of H2O2 damaged TM3 cells; format: cell-based, mouse; conditions: inhibitor pretreated 1 h, then 62.5 μg/mL CYCSE 24 h, 0.4 mM H2O2 2 h
Procedure: TM3 cells: purchased from Shanghai Cell Bank of the Chinese Academy of Sciences. The culture conditions are DMEM/F12+5% horse serum+2.5% fetal bovine serum+1% penicillin-streptomycin, 37° C., 5% CO2 incubator. TM3 cells were placed in a 96-well plate at a density of 3×10^4 cells/mL and divided into 6 groups: control group, H2O2 group, CYCSE group, ERK inhibitor ([…] group, AKT inhibitor ([…] group, and sildenafil group. After the two inhibitors were pretreated for 1 […] was added and processed for 24 h, and 0.4 mM H2O2 was added and processed for 2 h. After the two kinds of cells were treated separately, CCK8 was added and incubated at 37° C. for 1 h. A microplate reader was used to measure absorbance at 450 nm and calculate the cell viability.

[9] = tested on: mice with oligoasthenospermia induced by tripterygium glycosides; conditions: cited from earlier work

## CCCc1nn(C)c2c(=O)[nH]c(-c3cc(S(=O)(=O)N4CCN(C)CC4)ccc3OCC)nc12 [Sildenafil]
[1]
  Diameter of seminiferous tubules: 357.61 ± 8.03 μm
  Germinal cell layer thickness: 72.50 ± 5.47 μm
[2]
  Immunoexpression of 3β-HSD (testicular leydig cells): +
[3]
  cGMP content: no significant difference between the sildenafil group and the high concentration group
  iNOS content: no significant difference between the sildenafil group and the high concentration group
[4]
  Cell viability of oxidation-damaged MCECs: no salvage effect
[5]
  Body weight: 329.37 ± 10.82 g
  Epididymal weight: 0.85 ± 0.01 g
  Testicular weight: 3.03 ± 0.06 g
[6]
  Sperm number: 4.63 ± 0.56^Δ *10^6/mL
[6]; grade a
  Sperm motility a: 17.67 ± 2.05^Δ %
[6]; grades a + b
  Sperm motility a + b: 37.67 ± 2.05^ΔΔ %

## COc1cccc(-c2cc(=O)c3ccccc3o2)c1N [PD98059]
[7]
  CYCSE-induced increase of p-ERK/ERK and p-AKT/AKT in TM3 cells with inhibitor: significantly down-regulated
[8]
  Effect of inhibitor on the protective effect of CYCSE on TM3 cell viability: significantly block the protective effect

## C[C@@H]1CC[C@@]2(OC1)O[C@H]1C[C@H]3[C@@H]4CC=C5C[C@@H](O)CC[C@]5(C)[C@H]4CC[C@]3(C)[C@H]1[C@@H]2C [diosgenin]
[9]
  Erectile latency: shorten
  MDA content in testicular tissues: reduce
  Organ coefficient of reproductive organs and immune organs: improve
  SOD activity in testicular tissues: increase
  Sperm quality: improve

Source: patent US20230248797A1, “Method for preparing medicine with Chinese yam protein extract for treating erectile dysfunction” (priority 2020, published 2023)
